Results taken from patent US8232273B2, “Heterocyclic compounds and methods of use” (Genentech, Inc., priority 2008, dated 2012).

Each compound was assayed against Bcl-xL (GST-Bcl-xL) (Homo sapiens, UniProt Q07817) (assay: TR-FRET binding assay, competition with F-Bak for the Bcl-xL binding site). Conditions: values listed in the order of Table 1, read-out: TR-FRET assay results (Ki), Bcl-xL.
Protocol: The measurement of competition of compounds of the invention with F-Bak for a Bcl-2 family protein (Bcl-xL) binding site using a Time Resolved Fluorescence Resonance Energy Transfer (TR-FRET) binding assay:
Test compounds were serially diluted in DMSO starting at 50 μM (2× starting concentration; 10% DMSO) and 10 μt transferred into a 384-well plate.
The samples are then mixed on a shaker for 1 minute then incubated for an additional 2 hours at room temperature. For each assay plate, a probe/antibody and protein/antibody/probe mixture were included as a negative and a positive control, respectively. Fluorescence was measured on the Envision (Perkin Elmer) using a 340/35 nm excitation filter and 520/525 (F-Bak) and 495/510 nm (Tb-labeled anti-his antibody) emission filters. Dissociation constants (Ki) were determined using Wang's equation (see, Wang, Z. X. An exact mathematical expression for describing competitive binding of two different ligands to a protein molecule. FEBS Lett. 1995 360:111-114). The TR-FRET assay can be performed in the presence of varying concentrations of human serum (HS) or fetal bovine serum (FBS).

Sequence of Bcl-xL (GST-Bcl-xL) (Q07817 whole entry, species assumed): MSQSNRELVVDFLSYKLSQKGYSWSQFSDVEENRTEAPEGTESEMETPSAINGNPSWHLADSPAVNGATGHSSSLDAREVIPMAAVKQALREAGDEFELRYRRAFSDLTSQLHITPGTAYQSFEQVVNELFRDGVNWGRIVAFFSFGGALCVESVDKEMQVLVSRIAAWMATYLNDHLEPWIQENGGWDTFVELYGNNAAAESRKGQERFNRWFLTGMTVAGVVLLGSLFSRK

`CN(C)CCCc1ccc(OCCCc2sc(N3CCc4cccc(C(=O)Nc5nc6ccccc6s5)c4C3)nc2C(=O)O)cc1` [Example 107, 2-(8-(benzo[d]thiazol-2-ylcarbamoyl)-3,4-dihydroisoquinolin-2(1H)-yl)-5-(3-(4-(3-(dimethylamino)propyl)phenoxy)propyl)thiazole-4-carboxylic acid] and `O=C(Nc1nc2ccccc2s1)c1cccc2c1CN(c1nc(C(=O)O)c(CCCOc3ccc(-n4ccnc4)cc3)s1)CC2` [Example 66, 5-(3-(4-(1H-imidazol-1-yl)phenoxy)propyl)-2-(8-(benzo[d]thiazol-2-ylcarbamoyl)-3,4-dihydroisoquinolin-2(1H)-yl)thiazole-4-carboxylic acid] are within 1.5-fold of each other in Ki: 0.15 nM for the first, 0.1 nM for the second.

Going from `CC(C)Nc1ncnc2c1cnn2-c1ccc(OCCCc2sc(N3CCc4cccc(C(=O)Nc5nc6ccccc6s5)c4C3)nc2C(=O)O)cc1` [Example 44, 2-(8-(benzo[d]thiazol-2-ylcarbamoyl)-3,4-dihydroisoquinolin-2(1H)-yl)-5-(3-(4-(4-(isopropylamino)-1H-pyrazolo[3,4-d]pyrimidin-1-yl)phenoxy)propyl)thiazole-4-carboxylic acid] to `O=C(Nc1nc2ccccc2s1)c1cccc2c1CN(c1nc(C(=O)O)c(CCCCOc3ccc(-n4ncc5cncnc54)cc3)s1)CC2` [Example 43, 5-(4-(4-(1H-pyrazolo[3,4-d]pyrimidin-1-yl)phenoxy)butyl)-2-(8-(benzo[d]thiazol-2-ylcarbamoyl)-3,4-dihydroisoquinolin-2(1H)-yl)thiazole-4-carboxylic acid], the Ki rises from 0.07 nM to 5 nM (71-fold). The first binds more tightly here.

First: O=C(Nc1nc2ccccc2s1)c1cccc2c1CN(c1nc(C(=O)O)c(CCCOc3ccc(N4CCOCC4)cc3)s1)CC2 [Example 59, 2-[8-(Benzothiazol-2-ylcarbamoyl)-3,4-dihydro-1H-isoquinolin-2-yl]-5-[3-(4-morpholin-4-yl-phenoxy)-propyl]-thiazole-4-carboxylic acid]
Second: O=C(Nc1nc2ccccc2s1)c1cccc2c1CN(c1nc(C(=O)O)c(CCCOc3ccc(-c4cnn(CCN5CCOCC5)c4)cc3)s1)CC2 [Example 83, 2-(8-(benzo[d]thiazol-2-ylcarbamoyl)-3,4-dihydroisoquinolin-2(1H)-yl)-5-(3-(4-(1-(2-morpholinoethyl)-1H-pyrazol-4-yl)phenoxy)propyl)thiazole-4-carboxylic acid]
The Ki of the first is 6-fold higher: 0.3 nM for the first, 0.05 nM for the second. The second binds more tightly here.

Going from `O=C(Nc1nc2ccccc2s1)c1cccc2c1CN(c1nc(C(=O)O)c(CCCCn3ccnc3)s1)CC2` [Example 72, 5-(4-(1H-imidazol-1-yl)butyl)-2-(8-(benzo[d]thiazol-2-ylcarbamoyl)-3,4-dihydroisoquinolin-2(1H)-yl)thiazole-4-carboxylic acid] to `O=C(Nc1nc2ccccc2s1)c1cccc2c1CN(c1nc(C(=O)O)c(CCOCc3ccccc3)s1)CC2` [Compound 134, 2-(8-(benzo[d]thiazol-2-ylcarbamoyl)-3,4-dihydroisoquinolin-2(1H)-yl)-5-(2-(benzyloxy)ethyl)thiazole-4-carboxylic acid], the Ki falls from 3 nM to 0.6 nM (5-fold).

Compared with `N#Cc1c(-c2ccc(OCC#Cc3sc(N4CCc5cccc(C(=O)Nc6nc7ccccc7s6)c5C4)nc3C(=O)O)cc2)n[nH]c1N` [Example 40, 5-(3-(4-(5-amino-4-cyano-1H-pyrazol-3-yl)phenoxy)prop-1-ynyl)-2-(8-(benzo[d]thiazol-2-ylcarbamoyl)-3,4-dihydroisoquinolin-2(1H)-yl)thiazole-4-carboxylic acid], `N#Cc1c(-c2cccc(OCc3sc(N4CCc5cccc(C(=O)Nc6nc7ccccc7s6)c5C4)nc3C(=O)O)c2)n[nH]c1N` [Example 46, 5-[3-(5-Amino-4-cyano-1H-pyrazol-3-yl)-phenoxymethyl]-2-[8-(benzothiazol-2-ylcarbamoyl)-3,4-dihydro-1H-isoquinolin-2-yl]-thiazole-4-carboxylic acid] is 2.5-fold higher in Ki: 0.4 nM for the first, 1 nM for the second. The first binds more tightly here.

Compared with `N#Cc1c(-c2ccc(OCCCc3sc(N4CCc5cccc(C(=O)Nc6nc7ccccc7s6)c5C4)nc3C(=O)O)cc2)csc1N` [Example 47, 5-{3-[4-(5-Amino-4-cyano-thiophen-3-yl)-phenoxy]-propyl}-2-[8-(benzothiazol-2-ylcarbamoyl)-3,4-dihydro-1H-isoquinolin-2-yl]-thiazole-4-carboxylic acid], `O=C(Nc1nc2ccccc2s1)c1cccc2c1CN(c1nc(C(=O)O)c(CCCOc3ccc(C4=CSC5=NCCN45)cc3)s1)CC2` [Example 53, 2-(8-(benzo[d]thiazol-2-ylcarbamoyl)-3,4-dihydroisoquinolin-2(1H)-yl)-5-(3-(4-(5,6-dihydroimidazo[2,1-b]thiazol-3-yl)phenoxy)propyl)thiazole-4-carboxylic acid] is 2-fold lower in Ki: 0.1 nM for the first, 0.05 nM for the second.

Compared with `O=C(Nc1nc2ccccc2s1)c1cccc2c1CN(c1nc(C(=O)O)c(CCCOc3ccc(-c4ncnc5c(Br)csc45)cc3)s1)CC2` [Example 65], `CC(C)Nc1ncnc2c(-c3ccc(OCCCc4sc(N5CCc6cccc(C(=O)Nc7nc8ccccc8s7)c6C5)nc4C(=O)O)cc3)csc12` [Example 69, 2-[8-(Benzothiazol-2-ylcarbamoyl)-3,4-dihydro-1H-isoquinolin-2-yl]-5-{3-[4-(4-isopropylamino-thieno[3,2-d]pyrimidin-7-yl)-phenoxy]-propyl}-thiazole-4-carboxylic acid] is 7.1-fold higher in Ki: 0.07 nM for the first, 0.5 nM for the second.

Going from `O=C(Nc1nc2ccccc2s1)c1cccc2c1CN(c1ccc(CCCCOc3ccccc3)c(C(=O)O)n1)CC2` [Compound 131, 6-(8-(benzo[d]thiazol-2-ylcarbamoyl)-3,4-dihydroisoquinolin-2(1H)-yl)-3-(4-phenoxybutyl)picolinic acid] to `O=C(Nc1nc2ccccc2s1)c1cccc2c1CN(c1ccc(CCCO)c(C(=O)O)n1)CC2` [Example 99, 6-[8-(Benzothiazol-2-ylcarbamoyl)-3,4-dihydro-1H-isoquinolin-2-yl]-3-(3-hydroxy-propyl)-pyridine-2-carboxylic acid], the Ki rises from 18.9 nM to 125 nM (6.6-fold). The first binds more tightly here.

Going from `CN(C)CC#Cc1ccc(OCCCc2sc(N3CCc4cccc(C(=O)Nc5nc6ccccc6s5)c4C3)nc2C(=O)NS(=O)(=O)C(F)F)c(F)c1` [Compound 147, 2-(8-(benzo[d]thiazol-2-ylcarbamoyl)-3,4-dihydroisoquinolin-2(1H)-yl)-N-(difluoromethylsulfonyl)-5-(3-(4-(3-(dimethylamino)prop-1-ynyl)-2-fluorophenoxy)propyl)thiazole-4-carboxamide] to `O=C(Nc1nc2ccccc2s1)c1cccc2c1CN(c1nc(C(=O)O)c(CCCOc3ccc(-c4cn[nH]c4)cc3)s1)CC2` [Example 73, 5-(3-(4-(1H-pyrazol-4-yl)phenoxy)propyl)-2-(8-(benzo[d]thiazol-2-ylcarbamoyl)-3,4-dihydroisoquinolin-2(1H)-yl)thiazole-4-carboxylic acid], the Ki falls from over 660 nM to 0.08 nM.

Compared with `N#Cc1c(-c2cccc(OCc3ccc(-c4sc(N5CCc6cccc(C(=O)Nc7nc8ccccc8s7)c6C5)nc4C(=O)O)cc3)c2)n[nH]c1N` [Example 37, 5-(4-((3-(5-amino-4-cyano-1H-pyrazol-3-yl)phenoxy)methyl)phenyl)-2-(8-(benzo[d]thiazol-2-ylcarbamoyl)-3,4-dihydroisoquinolin-2(1H)-yl)thiazole-4-carboxylic acid], `O=C(Nc1nc2ccccc2s1)c1cccc2c1CN(c1nc(C(=O)O)c(CCCOc3cccc(-n4ncc5cncnc54)c3)s1)CC2` [Example 33] is 13-fold lower in Ki: 4 nM for the first, 0.3 nM for the second. The second binds more tightly here.

Going from `CN1CCN(c2ccc(OCCCc3ccc(N4CCc5cccc(C(=O)Nc6nc7ccccc7s6)c5C4)nc3C(=O)O)c(F)c2)CC1` [Example 101, 6-(8-(benzo[d]thiazol-2-ylcarbamoyl)-3,4-dihydroisoquinolin-2(1H)-yl)-3-(3-(2-fluoro-4-(4-methylpiperazin-1-yl)phenoxy)propyl)picolinic acid] to `Cc1c(CN2CCN(C)CC2)cnn1-c1ccc(OCCCc2sc(N3CCc4cccc(C(=O)Nc5nc6ccccc6s5)c4C3)nc2C(=O)O)cc1` [Example 85, 2-(8-(benzo[d]thiazol-2-ylcarbamoyl)-3,4-dihydroisoquinolin-2(1H)-yl)-5-(3-(4-(5-methyl-4-((4-methylpiperazin-1-yl)methyl)-1H-pyrazol-1-yl)phenoxy)propyl)thiazole-4-carboxylic acid], the Ki falls from 0.7 nM to 0.05 nM (14-fold).

First: O=C(Nc1nc2ccccc2s1)c1cccc2c1CN(c1nc(C(=O)O)c(C#Cc3ccc4cc(OCCCN5CCOCC5)ccc4c3)s1)CC2 [Example 110, 2-(8-(benzo[d]thiazol-2-ylcarbamoyl)-3,4-dihydroisoquinolin-2(1H)-yl)-5-((6-(3-morpholinopropoxy)naphthalen-2-yl)ethynyl)thiazole-4-carboxylic acid]
Second: N[C@H]1[C@@H]2CCC[C@H]1[C@@H](c1ccc(OCCCc3sc(N4CCc5cccc(C(=O)Nc6nc7ccccc7s6)c5C4)nc3C(=O)O)cc1)CC2 [Example 80, 5-(3-(4-((1S,2S,5R,9S)-9-aminobicyclo[3.3.1]nonan-2-yl)phenoxy)propyl)-2-(8-(benzo[d]thiazol-2-ylcarbamoyl)-3,4-dihydroisoquinolin-2(1H)-yl)thiazole-4-carboxylic acid]
The Ki of the first is 7.1-fold lower: 0.07 nM for the first, 0.5 nM for the second.

`CN(C)CCCNc1ncnc2c1cnn2-c1ccc(OCCCc2ccc(N3CCc4cccc(C(=O)Nc5nc6ccccc6s5)c4C3)nc2C(=O)O)cc1` [Example 92, 6-(8-(benzo[d]thiazol-2-ylcarbamoyl)-3,4-dihydroisoquinolin-2(1H)-yl)-3-(3-(4-(4-(3-(dimethylamino)propylamino)-1H-pyrazolo[3,4-d]pyrimidin-1-yl)phenoxy)propyl)picolinic acid] gave a Ki of 0.05 nM.
